How the values were obtained:
[1] = target: T1, human PPAR alpha (Homo sapiens, UniProt Q07869); assay: PPAR transient transfection (transactivation) assay in CV-1 cells, hPPAR alpha; type: cell-based; conditions: PPAR LBD-GAL4 chimera, SPAP reporter, 24 h with compound, read-out: human αEC50
T1 construct: expressed in transfected cells; host or cells: CV-1 cells
T1 sequence (Q07869 239-466 limits assumed): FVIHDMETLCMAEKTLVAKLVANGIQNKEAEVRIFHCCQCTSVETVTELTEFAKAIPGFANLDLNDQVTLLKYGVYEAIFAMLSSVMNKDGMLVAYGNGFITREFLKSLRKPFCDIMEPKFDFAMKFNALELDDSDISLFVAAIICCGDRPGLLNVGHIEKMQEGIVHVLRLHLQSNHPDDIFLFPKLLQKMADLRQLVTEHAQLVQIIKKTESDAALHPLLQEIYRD
Source text: Compounds were screened for functional potency in transient transfection assays in CV-1 cells for their ability to activate the PPAR subtypes (transactivation assay). A previously established chimeric receptor system was utilized to allow comparison of the relative transcriptional activity of the receptor subtypes on the same target gene and to prevent endogenous receptor activation from complicating the interpretation of results. See, for example, Lehmann, J. M.; Moore, L. B.; Smith-Oliver, T. A.; Wilkison, W. O.; Willson, T. M.; Kliewer, S. A., An antidiabetic thiazolidinedione is a high affinity ligand for peroxisome proliferator-activated receptor γ (PPARγ), J. Biol. Chem., 1995, 270, 12953-6. The ligand binding domains for murine and human PPAR alpha, PPAR gamma, and PPAR delta were each fused to the yeast transcription factor GAL4 DNA binding domain. CV-1 cells were transiently transfected with expression vectors for the respective PPAR chimera along with a reporter construct containing five copies of the GAL4 DNA binding site driving expression of secreted placental alkaline phosphatase (SPAP) and β-galactosidase. After 16 h, the medium was exchanged to DME medium supplemented with 10% delipidated fetal calf serum and the test compound at the appropriate concentration. After an additional 24 h, cell extracts were prepared and assayed for alkaline phosphatase and β-galactosidase activity. […] Rosiglitazone (BRL 49653) was used as a positive control in the hPPAR gamma assay. The positive control in the hPPAR alpha assays was 2-(2-methyl-3-[3-{3-(4-cyclohexylamino)-[6-(4-fluorophenylpiperazin-1-yl)][1,3,5]triazin-2-ylamino}propyl]phenylthio)-2-methylpropionic acid. The positive control for PPAR delta assays was 2-{2-methyl-4-[({4-methyl-2-{trifluoromethyl)phenyl]-1,3-thiazol-5-yl}methyl)sulfanyl]phenoxy}acetic acid.

[2] = target: T2, human PPAR gamma (Homo sapiens, UniProt P37231); assay: PPAR transient transfection (transactivation) assay in CV-1 cells, hPPAR gamma; type: cell-based; conditions: PPAR LBD-GAL4 chimera, SPAP reporter, 24 h with compound, read-out: human γEC50
T2 construct: expressed in transfected cells; host or cells: CV-1 cells
T2 sequence (P37231 238-503 limits assumed): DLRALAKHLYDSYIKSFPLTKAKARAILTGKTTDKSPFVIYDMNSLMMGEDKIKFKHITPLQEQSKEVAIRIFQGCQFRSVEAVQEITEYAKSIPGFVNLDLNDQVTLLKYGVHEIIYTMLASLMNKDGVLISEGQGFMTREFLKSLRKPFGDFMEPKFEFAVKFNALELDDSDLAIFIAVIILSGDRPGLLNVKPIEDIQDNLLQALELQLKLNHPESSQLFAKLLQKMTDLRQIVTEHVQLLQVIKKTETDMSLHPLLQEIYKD
Source text: (§1) Compounds were screened for functional potency in transient transfection assays in CV-1 cells for their ability to activate the PPAR subtypes (transactivation assay). A previously established chimeric receptor system was utilized to allow comparison of the relative transcriptional activity of the receptor subtypes on the same target gene and to prevent endogenous receptor activation from complicating the interpretation of results. See, for example, Lehmann, J. M.; Moore, L. B.; Smith-Oliver, T. A.; Wilkison, W. O.; Willson, T. M.; Kliewer, S. A., An antidiabetic thiazolidinedione is a high affinity ligand for peroxisome proliferator-activated receptor γ (PPARγ), J. Biol. Chem., 1995, 270, 12953-6. The ligand binding domains for murine and human PPAR alpha, PPAR gamma, and PPAR delta were each fused to the yeast transcription factor GAL4 DNA binding domain. CV-1 cells were transiently transfected with expression vectors for the respective PPAR chimera along with a reporter construct containing five copies of the GAL4 DNA binding site driving expression of secreted placental alkaline phosphatase (SPAP) and β-galactosidase. After 16 h, the medium was exchanged to DME medium supplemented with 10% delipidated fetal calf serum and the test compound at the appropriate concentration. After an additional 24 h, cell extracts were prepared and assayed for alkaline phosphatase and β-galactosidase activity. Alkaline phosphatase activity was corrected for transfection efficiency using the β-galactosidase activity as an internal standard (see, for example, Kliewer, S. A., et. al. Cell 83, 813-819 (1995)). Rosiglitazone (BRL 49653) was used as a positive control in the hPPAR gamma assay. The positive control in the hPPAR alpha assays was 2-(2-methyl-3-[3-{3-(4-cyclohexylamino)-[6-(4-fluorophenylpiperazin-1-yl)][1,3,5]triazin-2-ylamino}propyl]phenylthio)-2-methylpropionic acid. The positive control for PPAR delta assays was 2-{2-methyl-4-[({4-methyl-2-{trifluoromethyl)phenyl]-1,3-thiazol-5-yl}methyl)sulfanyl]phenoxy}acetic acid.

[3] = target: T3, human PPAR delta (Homo sapiens, UniProt Q03181); assay: PPAR transient transfection (transactivation) assay in CV-1 cells, PPAR delta; type: cell-based; conditions: PPAR LBD-GAL4 chimera, SPAP reporter, 24 h with compound, read-out: human δEC50
T3 construct: expressed in transfected cells; host or cells: CV-1 cells
T3 sequence (Q03181 211-439 limits assumed): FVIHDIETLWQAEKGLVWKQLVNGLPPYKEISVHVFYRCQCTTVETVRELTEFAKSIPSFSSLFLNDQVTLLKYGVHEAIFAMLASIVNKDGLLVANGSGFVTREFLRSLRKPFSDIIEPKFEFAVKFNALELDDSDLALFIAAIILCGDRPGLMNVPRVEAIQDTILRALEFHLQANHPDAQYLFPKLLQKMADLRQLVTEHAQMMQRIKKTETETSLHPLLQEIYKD
Source text: as §1

Row | SMILES | EC50 [1] [nM] | melting point [°C] | EC50 [2] [µM] | EC50 [3] [nM]
1 | Cc1nc(-c2ccc(F)cc2)sc1C(=O)NCc1ccc(OC(C)(C)C(=O)O)cc1 [Example 31, 2-Methyl-2-[4-{[(4-methyl-2-[4-fluorophenyl]-thiazol-5-ylcarbonyl)amino]methyl}phenoxy]propionic Acid] | 44 | 159 | ≥ 10 | ≥ 10000
2 | COc1cc(CNC(=O)c2sc(-c3ccc(C(F)(F)F)cc3)nc2C)ccc1OC(C)(C)C(=O)O [Example 49, 2-Methyl-2-[2-methoxy-4-{[(4-methyl-2-[4-trifluoromethylphenyl]-thiazol-5-ylcarbonyl)amino]methyl}phenoxy]propionic Acid] | 10 |  | ≥ 10 | 1000
